Data as given in patent publication US8211929B2, “Pyrimidine derivatives as kinase modulators and method of use” (Exelixis, Inc., priority 2004, dated 2012).

What was measured:
[1] = biological target: T1, (Homo sapiens, UniProt P08069); experiment: IGF1R kinase assay (LCCA), IGF 0P; type: biochemical; conditions: IGF1R kinase LCCA assay
T1 construct: human IGF1R kinase domain residues M954-C1367; made in house; host or cells: baculovirus expression (insect cells)
Experimental: (§1) Kinase activity and compound inhibition are investigated using one or more of the three assay formats described below. The ATP concentrations for each assay are selected to be close to the Michaelis-Menten constant (KM) for each individual kinase. Dose-response experiments are performed at 10 different inhibitor concentrations in a 384-well plate format. […] Y=Min+(Max−Min)/(1+(X/IC50)^H) Equation (2)
(§2) IGF1R kinase biochemical activity was assessed using a Luciferase-Coupled Chemiluminescent Kinase assay (LCCA) format. Kinase activity was measured as the percent ATP remaining following the kinase reaction. Remaining ATP was detected by luciferase-luciferin-coupled chemiluminescence. Specifically, the reaction was initiated by mixing test compounds, 3 μM ATP, 4 μM poly EY peptide and 4 nM IGF1R (baculovirus expressed human IGF1R kinase domain residues M954-C1367) in a 20 uL assay buffer (20 mM Tris-HCL pH7.5, 10 mM MgCl2, 0.02% Triton X-100, 1 mM DTT, 2 mM MnCl2). The mixture is incubated at ambient temperature for 2 hours after which 20 uL luciferase-luciferin mix is added and the chemiluminescent signal read using a Wallac Victor^2 reader.

[2] = biological target: T2, IGF 3P (Homo sapiens, UniProt P08069); experiment: IGF1R kinase assay (LCCA), IGF 3P; type: biochemical; conditions: IGF1R kinase LCCA assay
T2 construct: human IGF1R kinase domain residues M954-C1367; made in house; host or cells: baculovirus expression (insect cells)
Experimental: as §1, §2

T2 sequence (P08069 954-1367): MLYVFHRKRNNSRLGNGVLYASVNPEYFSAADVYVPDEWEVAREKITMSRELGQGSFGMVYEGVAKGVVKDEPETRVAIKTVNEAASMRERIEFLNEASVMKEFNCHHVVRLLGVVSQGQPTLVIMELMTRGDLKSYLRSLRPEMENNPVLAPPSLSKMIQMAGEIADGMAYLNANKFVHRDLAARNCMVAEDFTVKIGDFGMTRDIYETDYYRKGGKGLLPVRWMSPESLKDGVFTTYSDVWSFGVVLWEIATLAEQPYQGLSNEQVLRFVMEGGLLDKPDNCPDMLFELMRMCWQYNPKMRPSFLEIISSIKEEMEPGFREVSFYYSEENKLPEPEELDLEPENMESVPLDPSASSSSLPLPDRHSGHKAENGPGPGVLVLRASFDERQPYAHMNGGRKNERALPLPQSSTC
T1 sequence (P08069 954-1367): as above

SMILES | IC50 [1] | IC50 [2]
CN1CCC(NC(=O)c2ccc(Nc3nccc(Nc4cc(C5CC5)n[nH]4)n3)cc2)CC1 [Example 164] | 0.5 to 5 µM | 0.5 to 5 µM
CCN(CC)CCNC(=O)c1ccc(Nc2ncc(C)c(Nc3cc(C4CC4)n[nH]3)n2)cc1 [Example 167] | 0.5 to 5 µM | 0.5 to 5 µM
O=C(Nc1ccc(Cl)c(Nc2ncc(Br)c(Nc3cc(C4CC4)[nH]n3)n2)c1)c1ccccc1 [Example 169] | 0.5 to 5 µM | 0.5 to 5 µM
Cc1cc(Nc2cc(C3CC3)n[nH]2)nc(Nc2ccc3cc(C(=O)NCCN4CCCC4)sc3c2)n1 [Example 173] | 0.5 to 5 µM | 0.5 to 5 µM
Cc1cc(Nc2cc(C3CC3)[nH]n2)nc(NCc2cc(-c3ccc(Cl)cc3)no2)n1 [Example 178] | 0.05 to 0.5 µM | 0.5 to 5 µM
Brc1cnc(NCc2nccs2)nc1Nc1cc(C2CC2)[nH]n1 [Example 179] | 0.5 to 5 µM | 0.5 to 5 µM
Brc1cnc(Nc2ccc3c(c2)CCC3)nc1Nc1cc(C2CC2)[nH]n1 [Example 180] | 0.5 to 5 µM | 0.5 to 5 µM
CCN(CC)CCCNC(=O)c1ccc(Nc2ncc(C)c(Nc3cc(C4CC4)n[nH]3)n2)cc1 [Example 181] | 0.5 to 5 µM | 0.5 to 5 µM
CCN(CC)CCNC(=O)c1ccc(Nc2nccc(Nc3cc(C4CC4)n[nH]3)n2)cc1 [Example 184] | 0.5 to 5 µM | 0.5 to 5 µM
CN1CCN(c2ccc(CNc3ncc(Br)c(Nc4cc(C5CC5)n[nH]4)n3)cc2)CC1 [Example 186] | 0.5 to 5 µM | 0.5 to 5 µM
COc1cc(CNc2ncc(Br)c(Nc3cc(C4CC4)[nH]n3)n2)cc(OC)c1 [Example 187] | 0.5 to 5 µM | 0.5 to 5 µM
CCN(CC)CCCNC(=O)c1ccc(Nc2nccc(Nc3cc(C4CC4)n[nH]3)n2)cc1 [Example 195] | 0.5 to 5 µM | 0.5 to 5 µM
Brc1cnc(NCC2CCNCC2)nc1Nc1cc(C2CC2)n[nH]1 [Example 198] | > 5 µM | 0.5 to 5 µM
Brc1cnc(N2CCOCC2)nc1Nc1cc(C2CC2)[nH]n1 [Example 200] | > 5 µM | 0.5 to 5 µM
Brc1cnc(NCC2CCCO2)nc1Nc1cc(C2CC2)n[nH]1 (stereo not shown) [Example 201] | > 5 µM | 0.5 to 5 µM
COc1cc(Nc2nccc(Nc3cc(C4CC4)n[nH]3)n2)cc(OC)c1 [Example 203] | 0.5 to 5 µM | 0.5 to 5 µM
CN(Cc1ccccc1Cl)c1ncc(Br)c(Nc2cc(C3CC3)[nH]n2)n1 [Example 204] | 0.5 to 5 µM | 0.5 to 5 µM

SMILES | IC50 [1] | IC50 [2]
COc1ccccc1CNc1nc(C)cc(Nc2cc(C3CC3)[nH]n2)n1 [Example 207] | 0.5 to 5 µM | 0.5 to 5 µM
Cc1cc(Nc2cc(C3CC3)n[nH]2)nc(Nc2ccc(N(C)C)cc2)n1 [Example 213] | 0.5 to 5 µM | 0.5 to 5 µM
Brc1cnc(NC2CCNCC2)nc1Nc1cc(C2CC2)[nH]n1 [Example 214] | > 5 µM | 0.5 to 5 µM
Cc1cc(Nc2nc(Nc3ccc(N4CCOCC4)cc3)ncc2Br)n(C)n1 [Example 215] | > 5 µM | 0.5 to 5 µM
Brc1cnc(NCc2csc(-c3cccs3)n2)nc1Nc1cc(C2CC2)[nH]n1 [Example 218] | 0.5 to 5 µM | 0.5 to 5 µM
CCN(CC)CCNC(=O)c1cc2ccc(Nc3nc(C)cc(Nc4cc(C5CC5)n[nH]4)n3)cc2s1 [Example 221] | 0.5 to 5 µM | 0.5 to 5 µM
CN(c1ccccc1)c1ncc(Br)c(Nc2cc(C3CC3)[nH]n2)n1 [Example 223] | 0.05 to 0.5 µM | 0.5 to 5 µM
c1cc(Nc2cc(C3CC3)n[nH]2)nc(Nc2ccc(N3CCOCC3)cc2)n1 [Example 224] | 0.5 to 5 µM | 0.5 to 5 µM
CC(=O)Nc1ccc(Cl)c(Nc2nccc(Nc3cc(C4CC4)[nH]n3)n2)c1 [Example 227] | 0.5 to 5 µM | 0.5 to 5 µM
FC(F)(F)Oc1ccc(Nc2ncc(Br)c(Nc3cc(C4CC4)[nH]n3)n2)c(Br)c1 [Example 237] | > 5 µM | 0.5 to 5 µM
c1ccc(CN2CCc3c(nc(NCc4cc(-c5ccccc5)no4)nc3Nc3cc(C4CC4)[nH]n3)C2)cc1 [Example 242] | 0.5 to 5 µM | 0.5 to 5 µM
Cc1cc(Nc2cc(-c3ccco3)[nH]n2)nc(NCc2cc(-c3ccccc3)no2)n1 [Example 246] | 0.5 to 5 µM | 0.5 to 5 µM
CN1CCN(c2ncc(Br)c(Nc3cc(C4CC4)[nH]n3)n2)CC1 [Example 249] | > 5 µM | 0.5 to 5 µM
Cc1cc(Nc2cc(C3CC3)[nH]n2)nc(NCc2nc(-c3ccccc3)cs2)n1 [Example 252] | 0.5 to 5 µM | 0.5 to 5 µM
CN(C)CCCNc1ncc(Br)c(Nc2cc(C3CC3)n[nH]2)n1 [Example 254] | > 5 µM | 0.5 to 5 µM
Cc1cc(Nc2cc(C3CC3)n[nH]2)nc(Nc2cc(F)cc(F)c2)n1 [Example 259] | 0.5 to 5 µM | > 5 µM
COc1cc(Nc2nc(C)cc(Nc3cc(C4CC4)[nH]n3)n2)cc(OC)c1 [Example 261] | 0.5 to 5 µM | > 5 µM

Results, then the compound that gave them:

IC50 [1] | IC50 [2] | SMILES
0.5 to 5 µM | 0.5 to 5 µM | NC(=O)c1ccc(Oc2ncc(Br)c(Nc3cc(C4CC4)n[nH]3)n2)cc1 [Example 158]
> 5 µM | 0.5 to 5 µM | CCN(CC)CCCNc1nc(Nc2cc(C3CC3)n[nH]2)c(Cl)c(Nc2ccccc2Cl)n1 [Example 160]
0.5 to 5 µM | 0.5 to 5 µM | Brc1ccc(Nc2ncc(Br)c(Nc3cc(C4CC4)n[nH]3)n2)c(Br)c1 [Example 163]
0.5 to 5 µM | 0.5 to 5 µM | Cc1ccc(C(C)C)cc1Nc1ncc(Br)c(Nc2cc(C3CC3)n[nH]2)n1 [Example 165]
0.5 to 5 µM | 0.5 to 5 µM | N#Cc1ccc(Nc2ncc(Br)c(Nc3cc(C4CC4)n[nH]3)n2)cc1 [Example 166]
0.05 to 0.5 µM | 0.5 to 5 µM | Fc1cnc(Nc2ccccc2Cl)nc1Nc1cc(C2CC2)[nH]n1 [Example 168]
0.5 to 5 µM | 0.5 to 5 µM | Brc1cnc(NCCc2cccs2)nc1Nc1cc(C2CC2)n[nH]1 [Example 170]
0.05 to 0.5 µM | 0.5 to 5 µM | Brc1ccc(Br)c(Nc2ncc(Br)c(Nc3cc(C4CC4)n[nH]3)n2)c1 [Example 172]
0.5 to 5 µM | 0.5 to 5 µM | Cc1cnc(Nc2ccc(N(C)C)cc2)nc1Nc1cc(C2CC2)n[nH]1 [Example 175]
0.5 to 5 µM | 0.5 to 5 µM | CCN(CC)CCCNc1cc(Nc2cc(C3CC3)n[nH]2)nc(Nc2ccccc2Cl)n1 [Example 182]
0.05 to 0.5 µM | 0.5 to 5 µM | Brc1cnc(NCc2cc(-c3ccccc3)no2)nc1Nc1cc(C2CCCC2)n[nH]1 [Example 189]
0.5 to 5 µM | 0.5 to 5 µM | Clc1ccccc1Nc1ncc(Br)c(Nc2cc[nH]n2)n1 [Example 192]
> 5 µM | 0.5 to 5 µM | CN(C)c1ccc(CNc2ncc(Br)c(Nc3cc(C4CC4)n[nH]3)n2)cc1 [Example 193]
0.5 to 5 µM | 0.5 to 5 µM | N#Cc1cccc(Nc2ncc(Br)c(Nc3cc(C4CC4)n[nH]3)n2)c1 [Example 196]
0.5 to 5 µM | 0.5 to 5 µM | Clc1cccc(Nc2nc(Nc3ccccc3Cl)ncc2Br)c1 [Example 205]
0.05 to 0.5 µM | 0.5 to 5 µM | Clc1ccccc1Nc1nc(Nc2cc(C3CC3)n[nH]2)c2nc[nH]c2n1 [Example 210]

IC50 [1] | IC50 [2] | SMILES
0.05 to 0.5 µM | 0.5 to 5 µM | Nc1cnc(Nc2ccccc2Cl)nc1Nc1cc(C2CC2)n[nH]1 [Example 220]
0.5 to 5 µM | 0.5 to 5 µM | Clc1ccccc1Nc1ncc(Br)c(Nc2ccccc2Cl)n1 [Example 222]
> 5 µM | 0.5 to 5 µM | Clc1cccc(CCNc2ncc(Br)c(Nc3cc(C4CC4)n[nH]3)n2)c1 [Example 226]
0.5 to 5 µM | 0.5 to 5 µM | O=C(NCCN1CCOCC1)c1nc(Nc2ccccc2Cl)nc(Nc2cc(C3CC3)n[nH]2)c1[N+](=O)[O-] [Example 228]
> 5 µM | 0.5 to 5 µM | Clc1ccc(CCNc2ncc(Br)c(Nc3cc(C4CC4)n[nH]3)n2)cc1 [Example 230]
0.5 to 5 µM | 0.5 to 5 µM | CN(C)c1ccc(Nc2nccc(Nc3cc(C4CC4)n[nH]3)n2)cc1 [Example 238]
0.5 to 5 µM | 0.5 to 5 µM | O=C(NCc1ccccc1)c1nc(Nc2ccccc2Cl)nc(Nc2cc(C3CC3)n[nH]2)c1[N+](=O)[O-] [Example 239]
> 5 µM | 0.5 to 5 µM | Clc1ccc(CCNc2ncc(Br)c(Nc3cc(C4CC4)n[nH]3)n2)c(Cl)c1 [Example 240]
0.5 to 5 µM | 0.5 to 5 µM | Fc1c(Cl)cccc1Nc1ncc(Br)c(Nc2cc(C3CC3)n[nH]2)n1 [Example 241]
> 5 µM | 0.5 to 5 µM | COc1ccc(CNc2ncc(Br)c(Nc3cc(C4CC4)n[nH]3)n2)cc1OC [Example 247]
> 5 µM | 0.5 to 5 µM | Brc1cnc(Nc2ccc(N3CCNCC3)cc2)nc1Nc1cc(C2CC2)n[nH]1 [Example 255]
> 5 µM | > 5 µM | COc1cc(Nc2ncc(Br)c(Nc3cc(C4CC4)n[nH]3)n2)cc(C(F)(F)F)c1 [Example 258]
> 5 µM | > 5 µM | Brc1cnc(Nc2ccccc2N2CCOCC2)nc1Nc1cc(C2CC2)n[nH]1 [Example 260]
0.5 to 5 µM | > 5 µM | FC(F)(F)c1cccc(CNc2ncc(Br)c(Nc3cc(C4CC4)n[nH]3)n2)c1 [Example 263]
> 5 µM | > 5 µM | FC(F)(F)Oc1cccc(Nc2ncc(Br)c(Nc3cc(C4CC4)n[nH]3)n2)c1 [Example 264]
